Where only a bound is given, the exact number is not on record here.

As usually defined, the melting point is the temperature, or range, at which the solid turns liquid.

Consider `Cc1cc(=O)n2c3c(cc(C(O)(C(F)(F)F)C(F)(F)Cl)cc13)CC2` (stereo not given), for which the melting point lay within 160 to 164 °C. As for `COc1ccc(C(=O)c2c(C)n(C)c(=O)n2C)cc1`, the figure is 109 to 111 °C; as for `C#CCCC(=O)N1c2ccccc2C(=O)Nc2cccnc21`, 179 to 180 °C; as for `CCCc1n[nH]c2c(=O)[nH]c(-c3cc(S(=O)(=O)N4CCN(C)CC4)ccc3OCC)nc12`, 236 to 239 °C. The same measure for `CCOC(=O)c1ccc(-c2ccc(OCCO)c(-c3ccc(N4CCCC4)c(C(C)(C)C)c3)c2)cc1`: 193 °C. As for `CC(=O)OCC1OC(n2cnc3c(N)nc(F)nc32)C(OC(C)=O)C1OC(C)=O` (stereo not given), the figure is 195 to 196 °C; as for `O=C(Cn1nnnc1S)NO`, 105 to 107 °C; as for `N#CCCC(C=O)(c1ccccc1)c1ccccc1`, 80 to 82 °C. With `COC(=O)C=C1CCCCC1c1cc(OC)cc(OC)c1` (stereo not given), the melting point was 80 to 81 °C.

Compound `CCc1ccc(C(=O)N[C@H](Cc2ccccc2)C(=O)O)cc1` displayed a melting point of 166 °C. As for `Cc1cccc(C)c1N=CNc1c(C)cccc1C`, the figure is 174 to 176 °C; as for `Cc1ccc(OP(Oc2ccc(C)cc2C(C)(C)C)Oc2ccc(C)cc2C(C)(C)C)c(C(C)(C)C)c1`, 114 to 115 °C. The same measure for `COc1ccc2c3c(c(=O)oc2c1OC)CN(CC(C)=O)CC3`: 145 to 147 °C; for `CS(=O)(=O)c1ccc(Oc2ccc(SC(F)(F)F)cc2)nc1`: 134 to 135 °C. The same measure for `COCc1cccc(CC#N)c1[N+](=O)[O-]`: 34 to 36 °C; for `O=C(O)CCCN(C(=O)c1ccc(Cl)cc1Cl)c1cccc2ccccc12`: 134 to 136 °C. `C[C@@H]1C(=O)N(C(=O)N2CCOCC2)Cc2ccccc2[C@@H]1C` (relative stereo) displayed a melting point of 184 to 185 °C. For the compound `CCOC(=O)c1ccc(NC(=O)c2cc(Cl)ccc2OC)cc1OCC`, the melting point was in the range of 108 to 111 °C. As for `CC(C)(C)NCC(O)c1cc(F)c(N)cc1F` (stereo not given), the figure is 115 to 116 °C; as for `O=C1CCC(n2cnc(-c3ccc(F)cc3)c2-c2ccnc(O)n2)CC1`, 236 to 238 °C. As for `Cc1cc2c(C)cc(=O)oc2cc1O`, the figure is 273 °C; as for `COc1nc(Br)cnc1NS(=O)(=O)c1ccccc1-c1ccc(CC(C)C)cc1`, 154 to 156 °C. As for `Cc1noc(-c2ccc(S(C)(=O)=O)cc2)c1-c1ccc(-c2cscn2)cc1`, the figure is 119 °C; as for `NS(=O)(=O)c1ccc(-c2cnn(CC(F)(F)F)c(=O)c2-c2ccc(Cl)cc2)cc1`, 154 to 156 °C; as for `CCn1cc(C(=O)NCc2ccc(Cl)cc2)c(=O)c2cc(C#CCOC(=O)CCC(=O)O)sc21`, 180 to 182 °C. For `CC(=O)NCc1cccc(Nc2nccc(-c3sc(-c4ncc(C(F)(F)F)cc4Cl)nc3C)n2)c1`, the melting point is 217 to 218 °C. The same measure for `COC(=O)c1ccccc1S(=O)(=O)Nn1cnn(-c2nc(OC)cc(OC)n2)c1=O`: 192 °C; for `CCCCCCc1nc2c(N)nc3ccccc3c2n1CCCCNS(C)(=O)=O`: 170 to 171 °C. As for `CN(C)C(=O)Nc1cnc(N(C)C)c(Cl)c1`, the figure is 139 to 141 °C; as for `CC(C)(C)OC(=O)CC[C@H](NC(=O)c1ccc(N(CCCl)CCCl)cc1)C(=O)OC(C)(C)C`, 114 to 116 °C. As for `N#Cc1ccc(-c2cn3cc(Br)ccc3n2)cc1`, the figure is 218 to 219 °C; as for `CCC1(CC)c2cc(-c3nc4ccccc4s3)ccc2-c2ccc(N(c3ccc(O)cc3)c3ccc(O)cc3)cc21`, 294 to 297 °C; as for `NS(=O)(=O)c1ccc(-c2cn(-c3nc(-c4ccc(C(F)(F)F)cc4)cc(C(F)(F)F)n3)cn2)cc1`, 292 °C. `COCC(=O)N1CCc2nc3ccccc3c(C)c2CC1` gave a melting point of 116 °C. As for `N#Cc1c(F)cccc1S(=O)(=O)N(Cl)Cl`, the figure is 149 to 152 °C; as for `N#Cc1ccc(OCCCn2ccnc2)cc1`, 60 to 61.5 °C.

Turning to `O=CNC1=NN(c2ccccc2)C(c2ccccc2)C1` (stereo not given), the melting point was 158 to 160 °C. Take `O=C1CN(Cc2cnc(-c3ccc(C(CC4CCOCC4)c4ccc(S(=O)(=O)C5CC5)cc4)[nH]3)s2)C(=O)N1` (stereo not given): the melting point is 184 to 185 °C. Consider `O=C1OC(C(O)CO)CCN1Cc1ccccc1` (stereo not given), for which the melting point was 100 to 102 °C. `Oc1nc(O)c2occc2n1` yielded a melting point of 233 °C.

Turning to `COc1ccc(C2=NN(Cc3ccncc3)C(=O)[C@H]3CC=CC[C@@H]23)cc1OC` (relative stereo), the melting point was 121 to 124 °C. On to `Cc1cc(NC(=O)Nc2cccc3c2C2CCCCN2C3=O)no1` (stereo not given), for which the melting point amounted to 156 °C.

On to `O=C(Nc1ccccc1N1CCCCC1)c1ccncc1`, for which the melting point was 111 to 113 °C.

The compound `Cn1cnc2c3ncc(Cl)cc3ccc21` gave a melting point of 188 to 189 °C. The same measure for `Cc1cc(Oc2c(Cl)cc(C(F)(F)F)cc2Cl)nn1C(=O)NCc1ccccc1`: 50 to 53 °C. The same measure for `C[C@H](Oc1ccc(-c2csc(S(N)(=O)=O)c2)cc1)[C@H](O)CCc1cccnc1`: 151 to 152 °C; for `CCOC(=O)C(=O)Nc1cc(O)ccc1O`: over 300 °C.

For `N#Cc1c([N+](=O)[O-])ccc(N2CCCC2)c1Cl`, the melting point was in the range of 170 to 173 °C.

In turn, `CNC1CN(c2c(F)cc3c(=O)c(C(=O)O)cn(C4CC4)c3c2F)C1` gave a melting point of 270 to 272 °C. As for `Oc1ccc(-c2cc3ncccc3cn2)cc1`, the melting point fell in the range of 219 to 221 °C. Take `C#CCN1CCC(OC)(c2cc(F)cc(Sc3ccc(C(C)=NO)cc3)c2)C1` (stereo not given): the melting point is 97 to 99 °C. Consider `Clc1cccc2c1CNC(=Nc1ccccc1)CS2`, for which the melting point is 150 to 152 °C. With `Cc1cccc(C2=C(c3ccc(S(C)(=O)=O)cc3)OC3(CCCCC3)C2=O)c1`, the melting point lay within 154 to 155 °C. As for `O=C(NCc1ccc2c(c1)OCO2)c1ccc2[nH]c(=O)n(Cc3ccc4c(c3)OCO4)c(=O)c2c1`, the figure is 245 °C; as for `CC(C)CCCC(C)C1CC=C2C3=C(CCC21C)C1(C)CC=CCC1CC3` (stereo not given), 105 °C; as for `COc1ccsc1C(=O)C1C(=O)N(C(N)=O)c2ccc(Cl)cc21` (stereo not given), 86 to 88 °C.

`O=C1C[C@H](NC(=O)C(F)(F)F)C(=O)O1` displayed a melting point of 116 to 118 °C. As for `CN(C)Cc1ccccc1-c1ccc(Br)cc1`, the figure is 60 to 62 °C; as for `O=C(Cn1nc(-c2ccccc2O)nc1-c1ccccc1O)NCCOCCO`, 173 to 174 °C. Compound `CC1(C)CCc2c(N3CCCC3)nc3sc4c(NCCc5c[nH]cn5)ncnc4c3c2C1` had a melting point of 192 to 193 °C. The same measure for `CNC(=O)c1cc2c(Oc3ccc(C(=O)N4CCOCC4)cc3)cncc2s1`: 173 to 175 °C. The same measure for `O=C(c1ccc(Cl)cc1)c1cc(-c2cccnc2)c(N2CCOCC2)s1`: 196 °C.

`CCC(C)NC(Nc1cc(Cl)cc(Cl)c1)=C(C#N)S(=O)(=O)c1ccc(Cl)cc1` (stereo not given) registered a melting point of 150 to 152 °C.

In turn, `CCOC(=O)C1C(c2ccc([N+](=O)[O-])cc2)CC(=O)N1C` (stereo not given) displayed a melting point of 142 to 143 °C. The same measure for `CCc1ccc(NS(=O)(=O)c2ccc(N3CCNC3=O)cc2)cc1`: 195 to 196 °C; for `COC(=O)c1ccc2c(c1)N(C(=O)N1CCC(c3cccnc3)C1)CCO2` (stereo not given): 61 °C. As for `OC(=Cc1ccccc1)C(O)C(O)C(O)C(O)C(O)=Cc1ccccc1` (stereo not given), the figure is 210 °C; as for `CCCNC(=O)c1ccc(-c2ccc3nnn(Cc4ccc5ncccc5c4)c3n2)cc1F`, 157 to 159 °C. As for `COc1ccc(-c2[nH]c(-c3ccc(N)c(C)c3)nc2C(=O)Nc2nccs2)cc1`, the figure is over 250 °C; as for `CC(C)(C)CC(C)(C)n1scc(Cl)c1=O`, 137 to 140 °C; as for `CCCCCCCCCCCCCCCCCCOc1cc(OC(C)=O)cc(N(CC(=O)O)CC(=O)O)c1`, 122 to 127 °C.

With `CC(=O)c1cc(-c2ccc(S(C)(=O)=O)cc2)c(-c2ccc(F)cc2)s1`, the melting point lay in the range of 169 to 172 °C. The compound `Cc1c(C=O)c2cc(Br)ccc2n1-c1ccc(O)cc1` displayed a melting point of over 250 °C. As for `O=C(Nc1cccc(Br)n1)c1cc(-c2ccc(F)cc2)n(C2CCCCO2)n1` (stereo not given), the figure is 151 to 152 °C; as for `COc1ccc2cnc(Nc3ccc(F)c(C)c3)nc2c1C1CCCC1`, 208 to 209 °C; as for `CCc1c(C=CC(=O)O)ccc2c1OCO2`, 204 °C.

In turn, `N#Cc1ccc(NCc2cc3c(cc2O)CCCO3)cc1` registered a melting point of 162 to 164 °C.

`S=C(NCc1cccnc1)NC(Cc1cccc2ccccc12)=Nc1ccccc1` displayed a melting point of 162 to 163 °C. As for `c1ccc2c(c1)nc1c3c(onc32)CCC1`, the figure is 149 to 150 °C; as for `CCCCc1ccc(-c2ccc(CCc3ccc(F)cc3)cc2)c(F)c1`, 35 °C; as for `COC(=O)c1ccc(C2(c3ccc4c(c3)C3(C)C5(C)CCC(C5)C3(C)O4)OCCO2)cc1` (stereo not given), 136 to 137 °C.

For `O=C1c2ccccc2C(=O)N1[C@@H]1C=CC[C@H]1O` (relative stereo), the melting point was in the range of 114 to 116 °C. As for `CCNC(=C[N+](=O)[O-])NCCSCc1csc(CN(C)C)n1`, the figure is 89 to 90 °C. As for `NS(=O)(=O)c1c(Cl)sc(Cl)c1Br`, the figure is 113 to 117 °C. The same measure for `COC(=O)Nc1cnc2c(NC(=O)c3c(Cl)cccc3Cl)cccc2c1-n1ccnc1`: 236 to 238 °C; for `CS(=O)(=O)Nc1cccc(Nc2nc(NCCO)c3nc[nH]c3n2)c1`: 163 to 166 °C.

Compound `COC(=O)c1cc(N)c2nc(C)nn2c1` came in with a melting point of 212 °C. As for `O=C(O)c1ccc(Br)c(S)c1`, the figure is 315 to 317 °C; as for `CC(C)(CO)NC(=O)NCCNCC(O)COc1ccc(O)cc1` (stereo not given), 113 to 130 °C; as for `CCOC(=O)c1cnc2c(-c3cccc(Cl)c3)cnn2c1`, 136 °C.

The record behind these values is a melting point compilation (Tetko et al.; mined from patent text by program, amines drawn as free bases though some values may be those of a salt).
